Data from paper PMC12196007 (Molecules, 2025).
Values joined by “and” are separate entries in the source; they are usually repeats but may differ in a detail not shown here. Equal values may be shown once. Read-outs that look alike come from different tables or passages of the source.

Tests used:
[1] = In vitro drug release (dialysis bag, PBS); type: physicochemical
Method: The release media were designed to simulate physiological conditions of the human gastrointestinal tract: pH 2.0 (simulated gastric fluid), pH 6.8 (simulated intestinal fluid), and pH 7.4 (to mimic the alkaline colonic terminus). […] Aliquots (0.5 mL) were collected at predetermined intervals (0.5, 1, 2, 4, 6, 8, 12, and 24 h), with the release medium replenished immediately after each sampling to maintain sink conditions. The experiment was repeated three times. The drug release was quantified using a validated HPLC method. Cumulative release percentages were plotted against time, and release kinetics were analyzed using four models: zero-order kinetics, first-order kinetics, Higuchi equation, and Weibull distribution function. Key parameters, including T50 (time required for 50% drug dissolution) and Td (time required for 63.2% drug dissolution), were calculated to evaluate pH-dependent release profiles.

Caco-2 cells = test: Cellular uptake in Caco-2 cell monolayer; type: in vitro ADME, human; details: Caco-2, 200 μg·mL−1 CUR, 20 min
Method: Caco-2 cells were seeded into the donor chamber of Transwell inserts at a density of 1 × 10^5 cell·mL^−1 and cultured in complete medium. Transepithelial electrical resistance (TEER) was measured on the 0th, 3rd, 5th, 7th, 10th, and 15th days to monitor monolayer integrity. A TEER value exceeding 700 Ω·cm² was established as the threshold for successful formation of the human intestinal epithelial barrier model. Following model validation, the cell surface was equilibrated with PBS for 30 min and rinsed to remove debris. […] Cellular uptake was terminated by rapid washing with ice-cold PBS to remove surface-bound drug and nonviable cells. […] Cellular uptake was calculated according to Equation (4).
The established Caco-2 cell monolayer model imitating human intestinal epithelium was equilibrated in pH 7.4 PBS at 37 °C within a CO2 incubator for 30 min. After removal of PBS, the cell surface was rinsed three times. […] The uptake process was terminated by ice-cold PBS, and residual solutions were removed by washing. Cells were then scraped into centrifuge tubes, sonicated, and quantified for uptake measurements.

[2] = 2 h incubation of CUR solutions with intestinal segments (residual CUR); type: in vitro ADME, rats
[3] = In situ single-pass intestinal perfusion; type: in vivo, Sprague–Dawley (SD) rats; details: for Papp: both sexes, Sprague-Dawley, rat, other: in situ single-pass intestinal perfusion, read-out: Peff (effective permeability coefficient)
Method: The rats were anesthetized and secured in a supine position on a surgical platform maintained at 37 °C. […] A 10 cm intestinal segment was isolated, and incisions were made at both ends. Silicone tubes were inserted into the incisions and ligated. […] Subsequently, the test sample was perfused through the intestinal loop. […] The collected samples were centrifuged, and the supernatant was mixed with methanol to precipitate proteins. After a second centrifugation, the resulting supernatant was analyzed by HPLC.

[4] = In vivo pharmacokinetic study, oral gavage; set-up: species or system SD rats
Method: The analysis was performed on a Q Exactive™ hybrid quadrupole-Orbitrap™ mass spectrometer (Thermo Fisher Scientific, USA) with the following parameters: Chromatographic separation was achieved by Agilent ZORBAX SB-C18 column (150 mm × 4.6 mm, 5 μm) with a mobile phase of acetonitrile and 0.1% formic acid aqueous solution (48:52, v/v) at a flow rate of 1 mL·min^−1 while maintaining the column temperature at 30 °C. The mass spectrometer operated in positive ion mode with an electrospray ionization (ESI) source, employing multiple reaction monitoring (MRM) for detection. Key ionization parameters included a capillary voltage of 3.0 kV and nitrogen as the collision gas.
Twelve SD rats (220 ± 20 g, equal numbers of males and females) were fasted for 24 h with free access to water and randomly allocated into two groups (n = 6 per group). […] Blood samples (~0.5 mL) were collected from the jugular vein into anticoagulant tubes at 0, 0.25, 0.5, 1, 2, 4, 6, 8, 12, and 24 h after administration. After centrifugation to collect the supernatant, samples were spiked with 20 μL of a 100 μg·mL^−1 internal standard solution, extracted twice with ethyl acetate for protein precipitation, and the combined organic phases were evaporated using a refrigerated vacuum concentrator.

[5] = Stability of CUR sample solutions at room temperature (HPLC method validation); type: physicochemical; details: 0-20 h
Method: 2.4 Precision and Stability […]
was diluted to three concentration levels: low (1 μg·mL-1), medium (10 μg·mL-1), and […]
content was measured by HPLC in triplicate to assess intraday precision. The same samples were analyzed once daily for five consecutive days to assess interday […]
temperature. Samples were collected at 0, 4, 8, 12, and 20 hours and analyzed by […]
for low, medium, and high concentrations, respectively. The interday RSD values were 1.97%, 2.00%, and 1.94%, indicating good method precision. Stability results […]
temperature for up to 20 hours. […]

[6] = cited from earlier work
[7] = both sexes, Sprague-Dawley, rat, plasma, po, 50 mg/kg

Cumulative release of CUR at 4 h ([1]; 4 h): ~80% | Cumulative release rate at 24 h ([1]; pH 2.0, 24 h): 88.89% | Cumulative release rate at 24 h ([1]; pH 6.8, 24 h): 90.17% | Cumulative release rate at 24 h ([1]; pH 7.4, 24 h): 86.64% | Drug Intake, mean (x¯) (Caco-2 cells; n = 3): 43.82 ± 1.74 µg/mg | Residual CUR percentage ([2]; colonic segment): 92.90 ± 0.96% | Residual CUR percentage ([2]; duodenal segment): 99.63 ± 0.34% | Residual CUR percentage ([2]; ileal segment): 94.41 ± 1.57% | Residual CUR percentage ([2]; jejunal segment): 95.63 ± 0.47% | Papp ([3]; colon): 8.3 ± 0.1 ×10⁻⁶ cm/s | Papp ([3]; duodenum): 27.2 ± 0.5 ×10⁻⁶ cm/s | Papp ([3]; ileum): 23.3 ± 1.1 ×10⁻⁶ cm/s | Papp ([3]; jejunum): 26.1 ± 3.7 ×10⁻⁶ cm/s | Ka (absorption rate constant) ([3]; colon): 0.29 ± 0.0095 min⁻¹ | Remaining dosage ([3]; colon, 15 min): 97.47 ± 0.83% | Remaining dosage ([3]; colon, 30 min): 92.6 ± 1.04% | Remaining dosage ([3]; colon, 45 min): 87.97 ± 1.07% | Remaining dosage ([3]; colon, 60 min): 79.51 ± 3.48% | Remaining dosage ([3]; colon, 75 min): 78.03 ± 0.99% | Remaining dosage ([3]; colon, 90 min): 73.23 ± 0.45% | Remaining dosage ([3]; colon, 105 min): 70.98 ± 0.98% | Remaining dosage ([3]; colon, 120 min): 66.55 ± 1.07% | Ka (absorption rate constant) ([3]; duodenum): 0.52 ± 0.0048 min⁻¹ | Remaining dosage ([3]; duodenum, 15 min): 93.61 ± 0.59% | Remaining dosage ([3]; duodenum, 30 min): 89.22 ± 1.18% | Remaining dosage ([3]; duodenum, 45 min): 79.11 ± 0.58% | Remaining dosage ([3]; duodenum, 60 min): 69.18 ± 1.92% | Remaining dosage ([3]; duodenum, 75 min): 61.93 ± 1.54% | Remaining dosage ([3]; duodenum, 90 min): 54.95 ± 0.33% | Remaining dosage ([3]; duodenum, 105 min): 45.36 ± 1.72% | Remaining dosage ([3]; duodenum, 120 min): 42.13 ± 0.88% | Ka (absorption rate constant) ([3]; ileum): 0.47 ± 0.0208 min⁻¹ | Remaining dosage ([3]; ileum, 15 min): 93.68 ± 0.37% | Remaining dosage ([3]; ileum, 30 min): 89.84 ± 0.89% | Remaining dosage ([3]; ileum, 45 min): 82.04 ± 1.06% | Remaining dosage ([3]; ileum, 60 min): 72.17 ± 1.08% | Remaining dosage ([3]; ileum, 75 min): 64.11 ± 1.25% | Remaining dosage ([3]; ileum, 105 min): 51.48 ± 1.18% | Remaining dosage ([3]; ileum, 120 min): 45.11 ± 3.27% | Ka (absorption rate constant) ([3]; jejunum): 0.47 ± 0.0088 min⁻¹ | Remaining dosage ([3]; jejunum, 15 min): 94.43 ± 2.05% | Remaining dosage ([3]; jejunum, 30 min): 90.52 ± 0.80% | Remaining dosage ([3]; jejunum, 45 min): 87.97 ± 0.43% | Remaining dosage ([3]; jejunum, 60 min): 77.07 ± 0.97% | Remaining dosage ([3]; jejunum, 75 min): 70.44 ± 0.82% | Remaining dosage ([3]; jejunum, 90 min): 62.99 ± 0.92% | Remaining dosage ([3]; jejunum, 105 min): 54.99 ± 0.74% | Remaining dosage ([3]; jejunum, 120 min): 46.26 ± 0.94% | AUC(0-inf) [4, 7]: 144 ± 25.4 ng·h/mL | AUC(0-t) [4, 7]: 106 ± 21.8 ng·h/mL | Cmax [4, 7]: 64.9 ± 12 ng/mL | Tmax [4, 7]: 1 h | half-life [4, 7]: 3.97 ± 1.48 h | MRT last ([4]; both sexes, Sprague-Dawley, rat, plasma, po, 50 mg/kg, read-out: MRT0-t): 2.35 ± 0.67 h | MRT inf ([4]; both sexes, Sprague-Dawley, rat, plasma, po, 50 mg/kg, read-out: MRT0-∞): 5.13 ± 1.36 h | Time within which almost completely eliminated ([4]; rats, oral, 50 mg·kg−1): ≤ 4 h | Stability: RSD of CUR concentration ([5]; CUR solution for intestinal mucus penetration study, 10 μg·mL-1, room temperature): 0.28% | Stability: RSD of CUR concentration ([5]; CUR solution for release studies, 50 μg·mL-1, room temperature): 0.63%
SMILES: COc1cc(/C=C/C(=O)CC(=O)/C=C/c2ccc(O)c(OC)c2)ccc1O [CUR, Curcumin]
Drug Intake (single replicates) (Caco-2 cells; per mg protein): 42.03 µg/mg and 44.28 µg/mg and 45.46 µg/mg | Plasma concentrations as share of the administered dose (oral bioavailability) [6]: ~1%
